From US10168342B2, “Lipid probes and uses thereof” (THE SCRIPPS RESEARCH INSTITUTE, priority 2015, dated 2019)
Like-named read-outs stand apart in the source and are kept apart here.

Legend:
[1] = target: T1, AEA-DA lipid probe targets in Neuro2a cells (Mus musculus, UniProt O35114)
T1 sequence (O35114 1-478): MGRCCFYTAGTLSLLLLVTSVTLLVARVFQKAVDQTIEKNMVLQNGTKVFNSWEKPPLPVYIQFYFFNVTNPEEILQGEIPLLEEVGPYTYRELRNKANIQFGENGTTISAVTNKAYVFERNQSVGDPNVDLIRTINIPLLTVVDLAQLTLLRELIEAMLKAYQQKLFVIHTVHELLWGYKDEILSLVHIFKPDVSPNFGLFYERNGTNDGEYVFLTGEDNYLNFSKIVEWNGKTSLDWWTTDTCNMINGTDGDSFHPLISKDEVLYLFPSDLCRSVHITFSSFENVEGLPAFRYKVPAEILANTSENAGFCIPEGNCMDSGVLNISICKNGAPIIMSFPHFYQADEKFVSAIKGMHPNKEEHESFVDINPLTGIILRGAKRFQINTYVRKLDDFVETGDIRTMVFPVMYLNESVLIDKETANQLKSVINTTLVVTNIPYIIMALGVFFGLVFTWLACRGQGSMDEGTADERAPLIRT

[2] = target: AEA-DA lipid probe targets in Neuro2a cells (Mus musculus, UniProt Q9DBG6)
Sequence of AEA-DA lipid probe targets in Neuro2a cells (Mus musculus, UniProt Q9DBG6) (Q9DBG6 23-631): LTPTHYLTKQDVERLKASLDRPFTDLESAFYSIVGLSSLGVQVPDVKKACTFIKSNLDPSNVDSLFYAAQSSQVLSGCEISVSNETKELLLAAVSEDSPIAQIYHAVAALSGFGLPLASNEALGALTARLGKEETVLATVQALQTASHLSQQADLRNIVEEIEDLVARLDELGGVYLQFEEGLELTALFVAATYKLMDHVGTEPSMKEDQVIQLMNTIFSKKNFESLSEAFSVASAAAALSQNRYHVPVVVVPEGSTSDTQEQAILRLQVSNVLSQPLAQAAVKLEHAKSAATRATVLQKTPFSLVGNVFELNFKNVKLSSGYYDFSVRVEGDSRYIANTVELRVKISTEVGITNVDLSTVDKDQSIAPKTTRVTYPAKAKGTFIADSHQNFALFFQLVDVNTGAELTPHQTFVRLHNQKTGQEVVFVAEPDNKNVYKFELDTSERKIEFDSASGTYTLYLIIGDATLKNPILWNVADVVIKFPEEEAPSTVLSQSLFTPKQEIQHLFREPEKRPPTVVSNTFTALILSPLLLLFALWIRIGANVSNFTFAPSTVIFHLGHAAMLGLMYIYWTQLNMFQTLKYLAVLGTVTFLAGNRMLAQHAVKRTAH

[3] = target: AEA-DA lipid probe targets in Neuro2a cells (Mus musculus, UniProt Q8BG32)
Sequence of AEA-DA lipid probe targets in Neuro2a cells (Mus musculus, UniProt Q8BG32) (Q8BG32 whole entry): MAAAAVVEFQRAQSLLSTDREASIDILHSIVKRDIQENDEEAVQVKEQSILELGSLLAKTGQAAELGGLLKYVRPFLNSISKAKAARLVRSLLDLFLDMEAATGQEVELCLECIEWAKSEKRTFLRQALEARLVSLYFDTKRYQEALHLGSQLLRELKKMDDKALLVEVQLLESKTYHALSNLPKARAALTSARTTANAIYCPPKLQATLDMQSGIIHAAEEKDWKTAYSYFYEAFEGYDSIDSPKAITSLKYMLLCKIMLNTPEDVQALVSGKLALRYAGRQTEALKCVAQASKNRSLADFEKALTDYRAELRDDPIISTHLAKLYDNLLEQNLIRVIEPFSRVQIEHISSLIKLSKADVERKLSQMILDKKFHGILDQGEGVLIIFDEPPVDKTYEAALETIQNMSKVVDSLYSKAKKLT

[4] = target: AEA-DA lipid probe targets in Neuro2a cells (Mus musculus, UniProt Q9EQK7)
Sequence of AEA-DA lipid probe targets in Neuro2a cells (Mus musculus, UniProt Q9EQK7) (Q9EQK7 whole entry): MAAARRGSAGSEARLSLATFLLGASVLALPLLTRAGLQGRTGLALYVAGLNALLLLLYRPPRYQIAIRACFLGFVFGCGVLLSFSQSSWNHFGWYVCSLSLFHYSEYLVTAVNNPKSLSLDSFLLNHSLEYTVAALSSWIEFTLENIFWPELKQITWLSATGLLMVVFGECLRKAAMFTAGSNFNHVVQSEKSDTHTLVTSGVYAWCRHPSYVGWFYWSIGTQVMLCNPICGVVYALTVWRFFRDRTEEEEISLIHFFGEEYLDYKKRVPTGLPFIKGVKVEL

[5] = target: AEA-DA lipid probe targets in Neuro2a cells (Mus musculus, UniProt Q99KQ4)
Sequence of AEA-DA lipid probe targets in Neuro2a cells (Mus musculus, UniProt Q99KQ4) (Q99KQ4 whole entry): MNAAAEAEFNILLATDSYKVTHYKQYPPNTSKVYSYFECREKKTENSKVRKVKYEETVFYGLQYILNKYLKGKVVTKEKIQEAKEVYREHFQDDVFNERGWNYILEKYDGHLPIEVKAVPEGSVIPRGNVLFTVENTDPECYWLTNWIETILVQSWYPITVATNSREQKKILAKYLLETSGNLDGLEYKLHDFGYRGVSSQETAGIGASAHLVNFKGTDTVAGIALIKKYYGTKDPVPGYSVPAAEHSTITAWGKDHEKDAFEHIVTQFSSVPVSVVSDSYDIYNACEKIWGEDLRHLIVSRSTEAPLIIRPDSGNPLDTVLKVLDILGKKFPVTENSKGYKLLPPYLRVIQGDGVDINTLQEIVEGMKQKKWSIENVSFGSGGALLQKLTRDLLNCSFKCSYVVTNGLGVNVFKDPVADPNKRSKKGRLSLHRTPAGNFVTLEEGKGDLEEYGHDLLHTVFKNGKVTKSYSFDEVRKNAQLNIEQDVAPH

[6] = target: T2, AEA-DA lipid probe targets in Neuro2a cells (Mus musculus, UniProt Q80W54)
T2 sequence (Q80W54 1-475): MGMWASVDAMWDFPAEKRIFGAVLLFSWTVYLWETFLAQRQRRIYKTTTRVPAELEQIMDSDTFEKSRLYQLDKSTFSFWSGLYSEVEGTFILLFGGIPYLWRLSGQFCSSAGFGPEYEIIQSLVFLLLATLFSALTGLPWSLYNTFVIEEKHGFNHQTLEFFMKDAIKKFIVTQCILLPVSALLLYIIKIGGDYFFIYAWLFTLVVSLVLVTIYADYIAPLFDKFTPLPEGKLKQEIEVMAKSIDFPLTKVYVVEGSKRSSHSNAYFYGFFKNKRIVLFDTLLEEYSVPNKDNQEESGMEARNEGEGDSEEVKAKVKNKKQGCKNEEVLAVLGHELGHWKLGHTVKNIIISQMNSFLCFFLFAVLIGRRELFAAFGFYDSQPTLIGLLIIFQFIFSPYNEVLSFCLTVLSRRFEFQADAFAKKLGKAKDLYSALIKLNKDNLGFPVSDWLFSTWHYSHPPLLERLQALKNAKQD

[7] = target: T3, AEA-DA lipid probe targets in Neuro2a cells (Mus musculus, UniProt Q62186)
T3 sequence (Q62186 24-172): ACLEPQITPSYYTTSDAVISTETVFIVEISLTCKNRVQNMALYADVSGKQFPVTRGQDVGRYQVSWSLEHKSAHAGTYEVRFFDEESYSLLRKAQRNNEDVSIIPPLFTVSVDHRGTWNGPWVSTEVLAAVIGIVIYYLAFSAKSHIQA

[8] = target: T4, AEA-DA lipid probe targets in Neuro2a cells (Mus musculus, UniProt Q8BJ03); conditions: protein Cox15, Neuro2a cells
T4 sequence (Q8BJ03 1-413): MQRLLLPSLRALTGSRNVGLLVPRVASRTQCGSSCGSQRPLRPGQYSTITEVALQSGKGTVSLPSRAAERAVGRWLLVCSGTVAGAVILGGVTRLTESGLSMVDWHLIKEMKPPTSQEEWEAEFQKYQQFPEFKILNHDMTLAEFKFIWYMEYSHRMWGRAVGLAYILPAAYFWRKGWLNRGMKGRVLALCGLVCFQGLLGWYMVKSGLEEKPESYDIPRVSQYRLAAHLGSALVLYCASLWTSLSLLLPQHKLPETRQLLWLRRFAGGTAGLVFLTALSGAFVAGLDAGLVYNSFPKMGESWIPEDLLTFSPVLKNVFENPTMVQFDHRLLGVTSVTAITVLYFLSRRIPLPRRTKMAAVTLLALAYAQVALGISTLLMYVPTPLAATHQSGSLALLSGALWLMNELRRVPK

[9] = target: T5, AEA-DA lipid probe targets in Neuro2a cells (Mus musculus, UniProt Q9CZS1)
T5 sequence (Q9CZS1 20-519): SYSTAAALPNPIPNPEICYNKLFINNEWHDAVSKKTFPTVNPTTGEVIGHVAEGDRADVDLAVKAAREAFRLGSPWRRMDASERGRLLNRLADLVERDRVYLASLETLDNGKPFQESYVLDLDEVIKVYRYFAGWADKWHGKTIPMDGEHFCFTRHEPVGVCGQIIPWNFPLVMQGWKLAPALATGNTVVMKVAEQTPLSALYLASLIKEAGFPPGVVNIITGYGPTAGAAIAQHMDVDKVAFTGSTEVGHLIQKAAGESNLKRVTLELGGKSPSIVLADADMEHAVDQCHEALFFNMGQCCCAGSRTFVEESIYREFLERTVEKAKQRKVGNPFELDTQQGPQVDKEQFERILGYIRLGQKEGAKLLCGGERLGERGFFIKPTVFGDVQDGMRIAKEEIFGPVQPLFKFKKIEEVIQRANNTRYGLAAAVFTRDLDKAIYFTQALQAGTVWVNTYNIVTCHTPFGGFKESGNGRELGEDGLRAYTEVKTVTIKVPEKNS

[10] = target: T6, AEA-DA lipid probe targets in Neuro2a cells (Mus musculus, UniProt Q791V5)
T6 sequence (Q791V5 1-303): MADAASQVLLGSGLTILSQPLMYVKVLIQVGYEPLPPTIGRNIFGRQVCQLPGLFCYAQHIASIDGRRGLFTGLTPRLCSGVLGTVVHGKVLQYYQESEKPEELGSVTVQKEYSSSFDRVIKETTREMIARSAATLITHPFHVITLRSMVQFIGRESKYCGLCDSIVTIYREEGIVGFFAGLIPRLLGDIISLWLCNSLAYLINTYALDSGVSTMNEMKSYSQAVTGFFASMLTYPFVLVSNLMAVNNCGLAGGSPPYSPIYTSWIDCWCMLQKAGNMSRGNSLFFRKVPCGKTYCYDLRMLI

CCCCC/C=C\C/C=C\C/C=C\C/C=C\CCCC(=O)NCCO [AEA, anandamide, reference compound]
SILAC ratio Scarb2 ([1]; competitor 200 μM): 1.5
SILAC ratio Rpn2 ([2]; competitor 200 μM): 1.3
SILAC ratio Psmd11 ([3]; competitor 200 μM): 1.2
SILAC ratio Icmt ([4]; competitor 200 μM): 1.5
SILAC ratio, Nampt ([5]; competitor 200 μM): 1.1
SILAC ratio Zmpste24 ([6]; competitor 200 μM): 1.7
SILAC ratio, Ssr4 ([7]; competitor 200 μM): 1.8
SILAC ratio (AEA-DA competition) ([8]; competitor 200 μM): 1.0
SILAC ratio, Aldh1b1 ([9]; competitor 200 μM): 2.7
SILAC ratio Mtch2 ([10]; competitor 200 μM): 1.5

O=C(/C=C/c1cccnc1)NCCCCC1CCN(C(=O)c2ccccc2)CC1 [FK-866, reference compound]
SILAC ratio Scarb2 ([1]; competitor 25 μM): 1.1
SILAC ratio Rpn2 ([2]; competitor 25 μM): 1.1
SILAC ratio Psmd11 ([3]; competitor 25 μM): 1.3
SILAC ratio Icmt ([4]; competitor 25 μM): 1.3
SILAC ratio, Nampt ([5]; competitor 25 μM): 16.4
SILAC ratio Zmpste24 ([6]; competitor 25 μM): 1.1
SILAC ratio, Ssr4 ([7]; competitor 25 μM): 1.2
SILAC ratio (AEA-DA competition) ([8]; competitor 25 μM): 0.9
SILAC ratio, Aldh1b1 ([9]; competitor 25 μM): 1.3
SILAC ratio Mtch2 ([10]; competitor 25 μM): 1.1

CN1CCN(C(=O)c2c(-c3ccccc3)c3cc([N+](=O)[O-])ccc3n2C)CC1 [KML110, (1-Methyl-5-nitro-3-phenyl-1H-indol-2-yl)(4-methylpiperazin-1-yl)methanone]
SILAC ratio Scarb2 ([1]; competitor 25 μM): 1.3
SILAC ratio Rpn2 ([2]; competitor 25 μM): 1.2
SILAC ratio Psmd11 ([3]; competitor 25 μM): 1.3
SILAC ratio Icmt ([4]; competitor 25 μM): 1.0
SILAC ratio, Nampt ([5]; competitor 25 μM): 2.0
SILAC ratio Zmpste24 ([6]; competitor 25 μM): 1.4
SILAC ratio, Ssr4 ([7]; competitor 25 μM): 1.5
SILAC ratio (AEA-DA competition) ([8]; competitor 25 μM): 1.1
SILAC ratio, Aldh1b1 ([9]; competitor 25 μM): 1.7
SILAC ratio Mtch2 ([10]; competitor 25 μM): 1.3

CN1CCN(C(=O)c2[nH]c3ccc([N+](=O)[O-])cc3c2-c2ccccc2)CC1 [MJN228, (4-Methylpiperazin-1-yl)(5-nitro-3-phenyl-1H-indol-2-yl)methanone]
SILAC ratio Scarb2 ([1]; competitor 10 μM): 1.3
SILAC ratio Scarb2 ([1]; competitor 25 μM): 1.5
SILAC ratio Scarb2 ([1]; competitor 50 μM): 1.7
SILAC ratio Scarb2 ([1]; competitor 100 μM): 1.9
SILAC ratio Rpn2 ([2]; competitor 10 μM): 1.2
SILAC ratio Rpn2 ([2]; competitor 25 μM): 1.3
SILAC ratio Rpn2 ([2]; competitor 50 μM): 1.4
SILAC ratio Rpn2 ([2]; competitor 100 μM): 1.7
SILAC ratio Psmd11 ([3]; competitor 25 μM): 1.3
SILAC ratio Icmt ([4]; competitor 10 μM): 0.9
SILAC ratio Icmt ([4]; competitor 25 μM): 0.9
SILAC ratio Icmt ([4]; competitor 50 μM): 0.6
SILAC ratio Icmt ([4]; competitor 100 μM): 0.5
SILAC ratio, Nampt ([5]; competitor 25 μM): 1.2
SILAC ratio, Nampt ([5]; competitor 50 μM): 1.0
SILAC ratio Zmpste24 ([6]; competitor 10 μM): 1.1
SILAC ratio Zmpste24 ([6]; competitor 25 μM): 1.2
SILAC ratio Zmpste24 ([6]; competitor 50 μM): 1.3
SILAC ratio Zmpste24 ([6]; competitor 100 μM): 1.9
SILAC ratio, Ssr4 ([7]; competitor 10 μM): 1.5
SILAC ratio, Ssr4 ([7]; competitor 25 μM): 1.9
SILAC ratio, Ssr4 ([7]; competitor 50 μM): 2.4
SILAC ratio, Ssr4 ([7]; competitor 100 μM): 2.6
SILAC ratio (AEA-DA competition) ([8]; competitor 10 μM): 0.8
SILAC ratio (AEA-DA competition) ([8]; competitor 25 μM): 1.0
SILAC ratio (AEA-DA competition) ([8]; competitor 50 μM): 0.7
SILAC ratio (AEA-DA competition) ([8]; competitor 100 μM): 0.6
SILAC ratio, Aldh1b1 ([9]; competitor 10 μM): 1.2
SILAC ratio, Aldh1b1 ([9]; competitor 25 μM): 1.6
SILAC ratio, Aldh1b1 ([9]; competitor 50 μM): 2.0
SILAC ratio, Aldh1b1 ([9]; competitor 100 μM): 2.6
SILAC ratio Mtch2 ([10]; competitor 10 μM): 1.2
SILAC ratio Mtch2 ([10]; competitor 25 μM): 1.3
SILAC ratio Mtch2 ([10]; competitor 50 μM): 1.1
SILAC ratio Mtch2 ([10]; competitor 100 μM): 1.4

C=CCN(C)CCCCCCOc1ccc(C(=O)c2ccc(Br)cc2)c(F)c1 [Ro 48-8071, reference compound]
SILAC ratio Scarb2 ([1]; competitor 25 μM): 1.1
SILAC ratio Rpn2 ([2]; competitor 25 μM): 1.0
SILAC ratio Psmd11 ([3]; competitor 25 μM): 0.9
SILAC ratio Icmt ([4]; competitor 25 μM): 1.6
SILAC ratio, Nampt ([5]; competitor 25 μM): 0.9
SILAC ratio Zmpste24 ([6]; competitor 25 μM): 1.0
SILAC ratio, Ssr4 ([7]; competitor 25 μM): 1.2
SILAC ratio (AEA-DA competition) ([8]; competitor 25 μM): 0.8
SILAC ratio, Aldh1b1 ([9]; competitor 25 μM): 1.6
SILAC ratio Mtch2 ([10]; competitor 25 μM): 0.9
